Measured values: patent US20150057226A1, “METHOD FOR TREATMENT OF LABOR ARREST” (DILAFOR AB, priority 2012, published 2015)
Positions of bridges follow the written chain, without caps; N, C: chain ends. Non-standard residues stand in square brackets, D forms with d. Residues, ends and D or L forms follow the SMILES beside them. Orn = NCCC[C@H](N)C(=O)O; Mpa = O=C(O)CCS

Legend:
[1] = tested on: Human uterine smooth muscle cells; experiment: Intracellular Ca2+ with Fluo-4, live cell confocal imaging; format: cell-based
Procedure: Human uterine smooth muscle cells were established in a culture. Intracellular Ca^2+ was measured with the calcium indicator dye Fluo-4 and live cell imaging with confocal microscopy was established for the cells.
It was further investigated if the main transport mechanism of inositol-3 phosphate (IP3) stimulated Ca^2+ transport of the endoplasmatic reticulum. To study this pathway, 2-Aminoethoxydiphenyl borate (2-APB) was tested on Ca^2+ after 30 min of incubation with a concentration of 100 μM.
To further characterize the interaction between oxytocin and DF01 the effect of the oxytocin receptor antagonist Atosiban was used and the cells subjected to the DF01 enhanced oxytocin effect on Ca^2+ transport.

[2] = subcutaneous; species not stated; cited from earlier work

Compound: CC[C@H](C)[C@@H]1NC(=O)[C@H](Cc2ccc(O)cc2)NC(=O)[C@@H](N)CSSC[C@@H](C(=O)N2CCC[C@H]2C(=O)N[C@@H](CC(C)C)C(=O)NCC(N)=O)NC(=O)[C@H](CC(N)=O)NC(=O)[C@H](CCC(N)=O)NC1=O [oxytocin]
- Ca2+-influx to the cytosol ([1]; cells treated with oxytocin): demonstrated
- oxytocin concentration giving maximum effect on Ca2+-influx ([1]; dose-dependent effect): 0.05 IU/ml

Compound: heparin
- corresponding bioavailability [2]: about 10%

Compound: NCCOB(c1ccccc1)c1ccccc1 [2-APB, 2-Aminoethoxydiphenyl borate]
- effect on oxytocin and oxytocin/DF01 stimulated Ca2+-transport ([1]; 100 μM, after 30 min of incubation): decreased strongly

Compound: CCOc1ccc(C[C@H]2NC(=O)CCSSC[C@@H](C(=O)N3CCC[C@H]3C(=O)N[C@@H](CCCN)C(=O)NCC(N)=O)NC(=O)[C@H](CC(N)=O)NC(=O)[C@H]([C@@H](C)O)NC(=O)[C@H]([C@@H](C)CC)NC2=O)cc1 [Atosiban] ([Mpa][dY](Et)ITNCP[Orn]G-NH2; disulfide 1-6)
- effect on oxytocin and oxytocin/DF01 effect on Ca2+ transport ([1]; 10^−6 M): clearly inhibited
